{"source": "paper PMC7673538", "about": "(PLoS Biology, 2020)", "key": {"[1]": {"test_system": "EV-D68", "assay": "microbe, parasite or virus in culture", "format": "cell-based, enterovirus D68"}, "[2]": {"target": "T1, human DAT (Homo sapiens, UniProt Q01959)", "T1 construct": "expressed in transfected cells; host or cells: HEK293 (gift of Dr. Hoener, F. Hoffmann-La Roche)", "T1 sequence (Q01959 whole entry)": "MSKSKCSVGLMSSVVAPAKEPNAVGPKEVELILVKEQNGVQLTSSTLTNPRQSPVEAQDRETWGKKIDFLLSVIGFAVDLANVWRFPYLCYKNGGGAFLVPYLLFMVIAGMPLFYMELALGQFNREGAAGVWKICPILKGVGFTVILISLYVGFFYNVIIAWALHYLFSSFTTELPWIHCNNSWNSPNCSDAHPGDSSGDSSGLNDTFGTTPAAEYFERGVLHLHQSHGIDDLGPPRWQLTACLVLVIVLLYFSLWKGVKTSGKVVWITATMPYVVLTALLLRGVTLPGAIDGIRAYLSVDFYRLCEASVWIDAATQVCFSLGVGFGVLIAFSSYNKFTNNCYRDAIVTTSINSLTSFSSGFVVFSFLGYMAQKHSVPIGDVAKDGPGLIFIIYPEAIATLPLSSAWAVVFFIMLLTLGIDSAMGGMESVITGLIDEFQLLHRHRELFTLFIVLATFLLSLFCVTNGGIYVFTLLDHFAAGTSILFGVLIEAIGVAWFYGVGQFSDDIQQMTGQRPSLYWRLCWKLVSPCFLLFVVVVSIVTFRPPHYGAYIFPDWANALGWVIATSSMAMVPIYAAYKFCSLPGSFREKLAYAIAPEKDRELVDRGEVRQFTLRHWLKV", "format": "cell-based", "conditions": "for DAT, Mean (Figure 8B): Control = 100"}, "[3]": {"test_system": "HRV-A2", "assay": "microbe, parasite or virus in culture", "format": "cell-based, human rhinovirus"}, "[4]": {"test_system": "HRV-B14", "assay": "microbe, parasite or virus in culture", "format": "cell-based, human rhinovirus"}, "[5]": {"test_system": "CV-A24v", "assay": "microbe, parasite or virus in culture", "format": "cell-based, coxsackievirus A24v"}}, "note": "Where “and” joins values, the source holds several entries; their conditions need not be identical. Equal values may be shown once. Read-outs that look alike come from different tables or passages of the source.", "data": [{"smiles": "O=C(c1cc[nH]c1)N(Cc1ccc(F)cc1)c1ccccc1", "note": "[Compound 12b, N-(4-Fluorobenzyl)-N-phenyl-1H-pyrrole-3-carboxamide]", "values": [{"measurement": "Figure 7 dose-response raw data, EV-D68 (triplicate values)", "setting": "[1]; Concentration 0.1235 µM", "result": "107.007 and 105.506 and 109.76"}, {"measurement": "Figure 7 dose-response raw data, EV-D68 (triplicate values)", "setting": "[1]; Concentration 0.3704 µM", "result": "98.999 and 100.501 and 112.888"}, {"measurement": "Figure 7 dose-response raw data, EV-D68 (triplicate values)", "setting": "[1]; Concentration 1.1111 µM", "result": "104.38 and 102.252 and 111.637"}, {"measurement": "Figure 7 dose-response raw data, EV-D68 (triplicate values)", "setting": "[1]; Concentration 3.3333 µM", "result": "103.504 and 113.389"}, {"measurement": "Figure 7 dose-response raw data, EV-D68 (triplicate values)", "setting": "[1]; Concentration 10 µM", "result": "95.6204 and 100.626 and 112.763"}, {"measurement": "EC50", "setting": "[1]; Enterovirus D, EVD68, HeLa R19, read-out: EC50 EV-D68", "result": "0.086 ± 0.0071", "unit": "µM"}, {"measurement": "EC50", "setting": "[1]; Enterovirus D, EVD68, HeLa R19, read-out: Table in Figure 7A, EVD68, AVERAGE", "result": 0.0857, "unit": "µM"}, {"measurement": "EC50", "setting": "[1]; Enterovirus D, EVD68, HeLa R19, read-out: Table in Figure 7A, EVD68, exp1-exp3", "result": 0.088, "unit": "µM"}, {"measurement": "EC50", "setting": "[1]; read-out: Table in Figure 7A, EVD68, exp1-exp3", "result": "0.093 µM and 0.076 µM"}, {"measurement": "DAT, Mean (Figure 8B)", "setting": "[2]; 1µM", "result": 98.697}, {"measurement": "DAT, Mean as % (Figure 8B)", "setting": "[2]; 1µM, Control = 100%", "result": 103, "unit": "%"}, {"measurement": "DAT, Mean (Figure 8B)", "setting": "[2]; 100µM", "result": 90.1253}, {"measurement": "inhibition of DAT function (in words)", "setting": "[2]; HEK293 cells expressing human DAT, 1 μM or 100 μM", "result": "neither 12a, 19b, 19d, nor the combined compound 12b inhibited"}, {"measurement": "Figure 7 dose-response raw data, HRV-A2 (triplicate values)", "setting": "[3]; Concentration 0.0046 µM", "result": "14.2402 and 14.6225 and 13.0933"}, {"measurement": "Figure 7 dose-response raw data, HRV-A2 (triplicate values)", "setting": "[3]; Concentration 0.0137 µM", "result": "14.2402 and 14.6225 and 13.0933"}, {"measurement": "Figure 7 dose-response raw data, HRV-A2 (triplicate values)", "setting": "[3]; Concentration 0.0412 µM", "result": "15.1004 and 21.3125 and 13.3801"}, {"measurement": "Figure 7 dose-response raw data, HRV-A2 (triplicate values)", "setting": "[3]; Concentration 0.1235 µM", "result": "12.6155 and 13.1889 and 12.7111"}, {"measurement": "Figure 7 dose-response raw data, HRV-A2 (triplicate values)", "setting": "[3]; Concentration 0.3704 µM", "result": "13.0933 and 13.1889 and 13.7623"}, {"measurement": "Figure 7 dose-response raw data, HRV-A2 (triplicate values)", "setting": "[3]; Concentration 1.1111 µM", "result": "12.6155 and 14.1446 and 14.4314"}, {"measurement": "Figure 7 dose-response raw data, HRV-A2 (triplicate values)", "setting": "[3]; Concentration 3.3333 µM", "result": "83.2845 and 84.4313 and 84.7181"}, {"measurement": "Figure 7 dose-response raw data, HRV-A2 (triplicate values)", "setting": "[3]; Concentration 11.1111 µM", "result": "99.5652 and 104.147 and 110.034"}, {"measurement": "Figure 7 dose-response raw data, HRV-A2 (triplicate values)", "setting": "[3]; Concentration 33.3333 µM", "result": "100.093 and 102.52 and 105.578"}, {"measurement": "Figure 7 dose-response raw data, HRV-A2 (triplicate values)", "setting": "[3]; Concentration 100 µM", "result": "100.093 and 102.52 and 105.578"}, {"measurement": "EC50", "setting": "[3]; Human rhinovirus sp., HRV2 / HRVA2, HeLa R19, read-out: Table in Figure 7A, HRV2, AVERAGE", "result": 2.75, "unit": "µM"}, {"measurement": "EC50", "setting": "[3]; Human rhinovirus sp., HRV2 / HRVA2, HeLa R19, read-out: Table in Figure 7A, HRV2, exp1-exp3", "result": 2.76, "unit": "µM"}, {"measurement": "EC50", "setting": "[3]; read-out: Table in Figure 7A, HRV2, exp1-exp3", "result": "3.21 µM and 2.28 µM"}, {"measurement": "Figure 7 dose-response raw data, HRV_B14 (triplicate values)", "setting": "[4]; Concentration 0.0046 µM", "result": "15.2266 and 14.5606"}, {"measurement": "Figure 7 dose-response raw data, HRV_B14 (triplicate values)", "setting": "[4]; Concentration 0.0137 µM", "result": "10.2522 and 17.3246 and 10.943"}, {"measurement": "Figure 7 dose-response raw data, HRV_B14 (triplicate values)", "setting": "[4]; Concentration 0.0412 µM", "result": "15.2266 and 14.5606 and 17.3246"}, {"measurement": "Figure 7 dose-response raw data, HRV_B14 (triplicate values)", "setting": "[4]; Concentration 0.1235 µM", "result": "106.02 and 106.455 and 105.786"}, {"measurement": "Figure 7 dose-response raw data, HRV_B14 (triplicate values)", "setting": "[4]; Concentration 0.3704 µM", "result": "105.351 and 107.391 and 106.589"}, {"measurement": "Figure 7 dose-response raw data, HRV_B14 (triplicate values)", "setting": "[4]; Concentration 1.1111 µM", "result": "98.3946 and 107.926 and 101.94"}, {"measurement": "Figure 7 dose-response raw data, HRV_B14 (triplicate values)", "setting": "[4]; Concentration 3.3333 µM", "result": "99.5652 and 104.147 and 110.034"}, {"measurement": "Figure 7 dose-response raw data, HRV_B14 (triplicate values)", "setting": "[4]; Concentration 11.1111 µM", "result": "98.3946 and 107.926 and 101.94"}, {"measurement": "Figure 7 dose-response raw data, HRV_B14 (triplicate values)", "setting": "[4]; Concentration 33.3333 µM", "result": "99.2522 and 114.147 and 100.034"}, {"measurement": "Figure 7 dose-response raw data, HRV_B14 (triplicate values)", "setting": "[4]; Concentration 100 µM", "result": "99.5652 and 104.147 and 100.034"}, {"measurement": "EC50", "setting": "[4]; Human rhinovirus sp., HRV14 / HRVB14, HeLa R19, read-out: Table in Figure 7A, HRV14, AVERAGE", "result": 0.0953, "unit": "µM"}, {"measurement": "EC50", "setting": "[4]; Human rhinovirus sp., HRV14 / HRVB14, HeLa R19, read-out: Table in Figure 7A, HRV14, exp1-exp3", "result": 0.112, "unit": "µM"}, {"measurement": "EC50", "setting": "[4]; Human rhinovirus sp., HRVB14, HeLa R19, read-out: EC50 HRV-B14", "result": "0.095 ± 0.12", "unit": "µM"}, {"measurement": "EC50", "setting": "[4]; read-out: Table in Figure 7A, HRV14, exp1-exp3", "result": "0.09 µM and 0.084 µM"}, {"measurement": "Figure 7 dose-response raw data, CV-A24v (triplicate values)", "setting": "[5]; Concentration 0.0046 µM", "result": "11.045 and 11.5939"}, {"measurement": "Figure 7 dose-response raw data, CV-A24v (triplicate values)", "setting": "[5]; Concentration 0.0137 µM", "result": "14.0988 and 16.3593 and 16.4783"}, {"measurement": "Figure 7 dose-response raw data, CV-A24v (triplicate values)", "setting": "[5]; Concentration 0.0412 µM", "result": "14.0988 and 16.3593 and 16.4783"}, {"measurement": "Figure 7 dose-response raw data, CV-A24v (triplicate values)", "setting": "[5]; Concentration 0.1235 µM", "result": "14.8126 and 12.909 and 19.2147"}, {"measurement": "Figure 7 dose-response raw data, CV-A24v (triplicate values)", "setting": "[5]; Concentration 0.3704 µM", "result": "14.8126 and 13.6228 and 22.1892"}, {"measurement": "Figure 7 dose-response raw data, CV-A24v (triplicate values)", "setting": "[5]; Concentration 1.1111 µM", "result": "14.8126 and 13.6228 and 22.1892"}, {"measurement": "Figure 7 dose-response raw data, CV-A24v (triplicate values)", "setting": "[5]; Concentration 3.3333 µM", "result": "106.3 and 102.374 and 110.232"}, {"measurement": "Figure 7 dose-response raw data, CV-A24v (triplicate values)", "setting": "[5]; Concentration 11.1111 µM", "result": "105.473 and 108.334 and 112.487"}, {"measurement": "Figure 7 dose-response raw data, CV-A24v (triplicate values)", "setting": "[5]; Concentration 33.3333 µM", "result": "98.3206 and 97.0611 and 97.1756"}, {"measurement": "Figure 7 dose-response raw data, CV-A24v (triplicate values)", "setting": "[5]; Concentration 100 µM", "result": "82.2926 and 86.3728 and 89.8506"}, {"measurement": "EC50", "setting": "[5]; Coxsackievirus, HeLa R19, read-out: Table in Figure 7A, CVA24v, AVERAGE", "result": 1.34, "unit": "µM"}, {"measurement": "EC50", "setting": "[5]; Coxsackievirus, HeLa R19, read-out: Table in Figure 7A, CVA24v, exp1-exp3", "result": 1.11, "unit": "µM"}, {"measurement": "EC50", "setting": "[5]; read-out: Table in Figure 7A, CVA24v, exp1-exp3", "result": "1.23 µM and 1.67 µM"}]}]}
